Results: patent publication US12612413B2, “Heteroaryl compounds as inhibitors of programmed necrosis pathway, composition and method using the same” (ACCRO BIOSCIENCE INC., priority 2020, dated 2026)

Key:
Assay type in all cases: cell-based
HT-29 cells = test: HT-29 cell viability (necroptosis) assay; details: Homo sapiens, TNF-α (40 ng/mL), Smac mimetic (100 nM), z-VAD (20 μM), 40 h, from survival rate curve
Method: (§1) Human colon cancer HT-29 cells were used in a necroptosis assay. For this assay, HT-29 cells were added to 96-well plates. The compounds at different concentrations (0.3, 1.0, 3.0, 10.0, 20.0 μM) were then preprocessed for two hours. TNF-α (40 ng/mL), Smac mimetic (100 nM) and z-VAD (20 μM) were added, and the mixture was incubated for 40 h. Quantitative analysis of cell viability was conducted. DMSO pretreatment group was used as a negative control. Concentration for 50% of maximal effect was calculated according to the curve of the survival rate measured at different concentrations. FIG. 1 depicts the EC50 curves of compound A16.

MEF cells = test: MEF cell viability (necroptosis) assay; details: Mus musculus, TNF-α (40 ng/mL), Smac mimetic (100 nM), z-VAD (20 μM), 12 h
Method: as §1, with “MEF cells” for “Human colon cancer HT-29 cells were used in a necroptosis assay. For this assay, HT-29 cells”, “96-well plate.” for “96-well plates.”, “for 12” for “for 40”, “cell survival” for “cell viability”, “FIG. 2” for “FIG. 1”, “compound A9.” for “compound A16.”

L929 cells = test: L929 cell viability (necroptosis) assay; details: Mus musculus, TNF-α (40 ng/mL), z-VAD (20 μM), 16 h
Method: L929 cells were added to 96-well plate. The compounds at different concentrations (0.3, 1.0, 3.0, 10.0, 20.0 μM) were then preprocessed for two hours. TNF-α (40 ng/mL), and z-VAD (20 μM) were added, and the mixture was incubated for 16 h. Quantitative analysis of cell survival was conducted. DMSO pretreatment was used as a negative control. Concentration for 50% of maximal effect was calculated according to the curve of the survival rate measured at different concentrations. FIG. 3 depicts the EC50 curves of compound A3.

O=S1(=O)C=C(C2CC2)c2cc3nccc(Nc4ccc5scnc5c4)c3cc21 [Compound A9]
EC50 (HT-29 cells): 85 nM | EC50 (MEF cells): 240 nM | EC50 (L929 cells): 210 nM

CCOC1=CS(=O)(=O)c2cc3c(Nc4ccc5scnc5c4)ccnc3cc21 [Compound A13]
EC50 (HT-29 cells): 430 nM | EC50 (MEF cells): 200 nM | EC50 (L929 cells): 780 nM

CCOC1=C(C)S(=O)(=O)c2cc3c(Nc4ccc5scnc5c4)ccnc3cc21 [Compound A20]
EC50 (HT-29 cells): 280 nM | EC50 (MEF cells): 310 nM | EC50 (L929 cells): 420 nM

CC1=C(OCC2CC2)c2cc3nccc(Nc4ccc5scnc5c4)c3cc2S1(=O)=O [Compound A21]
EC50 (HT-29 cells): 310 nM | EC50 (MEF cells): 440 nM | EC50 (L929 cells): 8730 nM

O=S1(=O)CCc2cc3nccc(Nc4ccc5scnc5c4)c3cc21 [Compound B1, 8-(benzo[d]thiazol-5-ylamino)-2,3-dihydrothieno[2,3-g]quinoline 1,1-dioxide]
EC50 (HT-29 cells): 1740 nM | EC50 (L929 cells): 64000 nM

O=S1(=O)CC2(OCCO2)c2cc3nccc(Nc4ccc5scnc5c4)c3cc21 [Compound B2, 8-(benzo[d]thiazol-5-ylamino)-2H-spiro[thieno[2,3-g]quinoline-3,2′-[1,3]dioxolane]1,1-dioxide]
EC50 (HT-29 cells): 300 nM | EC50 (MEF cells): 435 nM | EC50 (L929 cells): 430 nM
